For orientation: IC50 means the concentration that gives 50% inhibition.

In ChEMBL document CHEMBL1765000, “Synthesis and biological evaluation of 1-substituted-3(5)-(6-methylpyridin-2-yl)-4-(quinolin-6-yl)pyrazoles as transforming growth factor-β type 1 receptor kinase inhibitors” (Bioorg Med Chem, 2011) one finds IC50 and inhibition data, which are given here for 18 compounds.

SMILES strings stand for the structures.

One assay has as its target T1, TGF-beta receptor type-1 (Homo sapiens, UniProt P36897).
T1 sequence (P36897 whole entry): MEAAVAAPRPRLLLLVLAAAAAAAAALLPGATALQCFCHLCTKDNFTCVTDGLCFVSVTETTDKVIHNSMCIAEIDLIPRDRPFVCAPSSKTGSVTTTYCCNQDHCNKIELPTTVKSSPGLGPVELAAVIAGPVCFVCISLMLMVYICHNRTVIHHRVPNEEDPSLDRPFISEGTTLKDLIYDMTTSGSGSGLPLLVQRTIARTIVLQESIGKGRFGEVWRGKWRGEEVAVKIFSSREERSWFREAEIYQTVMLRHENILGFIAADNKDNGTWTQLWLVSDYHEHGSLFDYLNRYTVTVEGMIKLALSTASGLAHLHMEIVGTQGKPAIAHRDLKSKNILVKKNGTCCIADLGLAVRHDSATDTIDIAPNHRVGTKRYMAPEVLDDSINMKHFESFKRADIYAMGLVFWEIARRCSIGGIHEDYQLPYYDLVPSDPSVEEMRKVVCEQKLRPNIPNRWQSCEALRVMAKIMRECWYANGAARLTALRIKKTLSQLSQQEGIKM
The assay can be described thus: Inhibition of human recombinant GST-fused ALK5 expressed in Sf9 cells.

The target of assay [1] is Mitogen-activated protein kinase 14 (Homo sapiens, UniProt Q16539). The assay is described as follows: Inhibition of human recombinant p38alpha expressed in Escherichia coli using ATF2 as a substrate by radioisotopic protein kinase assay.
Assay [2] concerns the target T2, TGF-beta receptor type-1 (Homo sapiens) (UniProt P36897).
T2 sequence (whole entry): T1 sequence (P36897 whole entry)
The assay can be described thus: Inhibition of human recombinant ALK5 activity in human HaCaT cells assessed as inhibition of TGFbeta-induced p3TP-luciferase reporter activity. Type of assay: cell-based. For orientation: Reporter assays use an easily measured gene product as a stand-in for the process of interest.

Mitogen-activated protein kinase 14, sequence (Q16539 whole entry): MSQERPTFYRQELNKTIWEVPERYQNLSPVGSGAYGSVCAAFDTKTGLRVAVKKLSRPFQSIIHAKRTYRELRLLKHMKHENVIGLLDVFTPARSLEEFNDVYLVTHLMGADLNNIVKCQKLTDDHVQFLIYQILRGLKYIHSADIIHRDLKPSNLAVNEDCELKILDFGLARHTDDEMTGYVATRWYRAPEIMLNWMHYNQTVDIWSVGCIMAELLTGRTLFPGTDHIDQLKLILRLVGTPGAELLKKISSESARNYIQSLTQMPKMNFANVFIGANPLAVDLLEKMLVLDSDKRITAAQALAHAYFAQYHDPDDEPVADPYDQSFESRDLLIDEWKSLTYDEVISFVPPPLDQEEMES

`Cc1cccc(-c2nn(CC(=S)Nc3ccccc3)cc2-c2ccc3ncccc3c2)n1`: the 50% inhibitory concentration (IC50) on TGF-beta receptor type-1 is 94 nM; in assay [1], over 1000 nM.
With `Cc1cccc(-c2c(-c3ccc4ncccc4c3)cnn2CC(=O)Nc2cccc(C#N)c2)n1`, the IC50 (on TGF-beta receptor type-1; in assay [1]) was over 1000 nM in each case.
For the compound `Cc1cccc(-c2[nH]c(Cc3cccc(C(N)=O)c3)nc2-c2ccc3nccnc3c2)n1`, the IC50 on TGF-beta receptor type-1 was found to be 17 nM; in assay [1], 480 nM.
Consider `Cc1cccc(-c2nn(CCC(=S)Nc3ccccc3)cc2-c2ccc3ncccc3c2)n1`, for which the IC50 on TGF-beta receptor type-1 is 88 nM; in assay [1], over 1000 nM.
In the case of `Cc1cccc(-c2nn(CC(=O)Nc3cccc(C#N)c3)cc2-c2ccc3ncccc3c2)n1`, in assay [2], the inhibition entry is “Dose-dependent effect”. Besides, the IC50 on TGF-beta receptor type-1 was 22 nM; in assay [1], over 1000 nM.
For the compound `Cc1cccc(-c2c(-c3ccc4ncccc4c3)cnn2CC(=O)Nc2ccccc2)n1`, the IC50 (at TGF-beta receptor type-1; in assay [1]) was over 1000 nM each time.
Consider `COc1ccnc2ccc(-c3cn(CCC(=O)Nc4cccc(C#N)c4)nc3-c3cccc(C)n3)cc12`, for which the IC50 (on TGF-beta receptor type-1; in assay [1]) was over 1000 nM in each case.
`Cc1cccc(-c2c(-c3ccc4ncccc4c3)cnn2CC(=O)Nc2cccc(C(N)=O)c2)n1`: the IC50 (at TGF-beta receptor type-1; in assay [1]) was over 1000 nM in each case.
As to `Cc1cccc(-c2nn(CCC(=O)Nc3ccccc3)cc2-c2ccc3ncccc3c2)n1`, the IC50 was 25 nM on TGF-beta receptor type-1 and over 1000 nM in assay [1].
For the compound `COc1ccnc2ccc(-c3cnn(CC(=O)Nc4ccccc4)c3-c3cccc(C)n3)cc12`, the IC50 (at TGF-beta receptor type-1; in assay [1]) was over 1000 nM throughout.
With `COc1ccnc2ccc(-c3cn(CC(=O)Nc4cccc(C#N)c4)nc3-c3cccc(C)n3)cc12`, the IC50 (at TGF-beta receptor type-1; in assay [1]) was over 1000 nM each time.
Consider `Cc1cccc(-c2nn(CC(=O)Nc3ccccc3)cc2-c2ccc3ncccc3c2)n1`, for which the figures for the IC50 (at TGF-beta receptor type-1; in assay [1]) were 207 nM and over 1000 nM, respectively.
On to `Cc1cccc(-c2nn(CC(=O)Nc3cccc(C(N)=O)c3)cc2-c2ccc3ncccc3c2)n1`, for which the IC50 was 75 nM on TGF-beta receptor type-1 and over 1000 nM in assay [1].
With `COc1ccnc2ccc(-c3cn(CC(=O)Nc4ccccc4)nc3-c3cccc(C)n3)cc12`, the IC50 (on TGF-beta receptor type-1; in assay [1]) was over 1000 nM in each case.
Regarding `Cc1cccc(-c2nn(CCC(=S)Nc3cccc(C#N)c3)cc2-c2ccc3ncccc3c2)n1`, the IC50 was determined as 232 nM on TGF-beta receptor type-1 and 630 nM in assay [1].
As for `Cc1cccc(-c2nn(CC(=S)Nc3cccc(C#N)c3)cc2-c2ccc3ncccc3c2)n1`, the IC50 on TGF-beta receptor type-1 is 51 nM; in assay [1] it was over 1000 nM.
For the compound `COc1ccnc2ccc(-c3cnn(CC(=O)Nc4cccc(C#N)c4)c3-c3cccc(C)n3)cc12`, the IC50 (at TGF-beta receptor type-1; in assay [1]) was over 1000 nM in each case.
As to `Cc1cccc(-c2nn(CCC(=O)Nc3cccc(C#N)c3)cc2-c2ccc3ncccc3c2)n1`, the IC50 was 101 nM at TGF-beta receptor type-1 and over 1000 nM in assay [1].
